Measured values as given in patent US4370335A, “Antisecretory 4-diphenylmethyl-1-[(oxoalkyl)imino]methyl-piperidines and their derivatives” (McNeilab, Inc., priority 1982, dated 1983).
Structures can show the parent of a compound that is named as a salt.

Tested on: gastric acid secretion
Assay: Acute Gastric Fistula, Rat: inhibition of gastric acid secretion (Total Acid Output)
Assay type: in vivo, Female Sprague-Dawley rats
Conditions: po, 1 h, one hour prior to surgery, dose for average 50% inhibition in Total Acid Output versus controls, collection at one hour
Protocol: The compounds of the invention are useful for inhibition of gastric acid secretion as measured by the following test. Female Sprague-Dawley rats are fasted twenty-four hours before testing and are given water ad libidum while being kept in individual cages. On the day of testing, the rats are weighed and are selected so that the rats in each test weigh within a range ±20 grams.
Surgery is carried out under light ether anesthesia. As soon as the rat is anesthetized its teeth are removed and a mid-line incision is made on the abdomen about 11/2 inches in length and the stomach and duodenum are exposed. If at this point the stomach is filled with food or fecal material, the rat is discarded. If the condition of the stomach is acceptable, a purse string stitch is placed on the fundic portion of the stomach with a suture, taking care not to pierce any blood vessels in the area. A small nick is then made into the stomach in the center of the purse string, and a cannula, consisting of a small vinyl tube with a flange on one end, is put into the stomach, and the purse string stitch is closed tightly around the flange. The test compound is administered either intraduodenally (i.d.) immediately after surgery or orally (p.o.) one hour prior to surgery at doses generally ranging from about 0.25 to about 160 mg/kg in a volume of 0.5 ml/100 grams rat. Control rats receive the test vehicle, 0.5% aqueous methyl cellulose.
After the surgery and (in the case of i.d. administration) after administration of the test compound, the abdominal wall and skin are closed simultaneously with three or four 18 mm wound clips and a collecting tube is placed on the cannula. Each rat is then placed in a box in which a longitudinal slit has been made to allow the cannula to hang freely and to allow the rat to move about unencumbered. After the rat has been allowed to stabilize for thirty minutes, the collection tube on the cannula is discarded and replaced with a clean tube to receive the gastric juice. Collections are made at one hour. At the end of the study, the cannula is removed and the rat is sacrificed.
The sample of gastric contents collected is drained into a centrifuge tube and centrifuged to pack down the sediment. The volume is read and a 1 ml aliquot of the supernatant is put into a beaker containing 10 ml distilled water and is titrated to pH 7 using 0.01 N sodium hydroxide. Results are determined for Volume, Titratable Acid and Total Acid Output, where Volume equals total ml of gastric juice minus sediment; Titratable Acid (meq/l) equals amount of 0.01 N sodium hydroxide needed to titrate the acid to pH 7; and Total Acid Output equals Titratable Acid times Volume. Results are reported as the ED50 dose (mg/kg required to produce an average of 50% inhibition in Total Acid Output versus controls in all the animals tested for a particular compound) and as percent inhibition.
The results obtained for representative compounds of the invention by the above test for inhibition of gastric secretion are shown in Table I: […]

| SMILES | ED50 [mg/kg] |
| --- | --- |
| CC1(CCCCCCN=CN2CCC(C(c3ccccc3)c3ccccc3)CC2)OCCO1 [Example 1, 4-(Diphenylmethyl)-1-{{[6-(2-methyl-1,3-dioxolan-2-yl)hexyl]imino}methyl}piperidine (E)-2-Butenedioate (1:1) Hydrate (10:7)] | 3.14 |
| CC(=O)CCCCCCN=CN1CCC(C(c2ccccc2)c2ccccc2)CC1 [Example 2, 4-(Diphenylmethyl)-1-{[(7-oxooctyl)imino]methyl}piperidine (E)-2-Butenedioate (1:1) Hydrate (10:7)] | 14.7 |
| CC(O)CCCCCCN=CN1CCC(C(c2ccccc2)c2ccccc2)CC1 (stereo not drawn) [Example 3, 4-(Diphenylmethyl)-1-{[(7-hydroxyoctyl)imino]methyl}piperidine 2-Naphthalenesulfonate (1:1) Hydrate (4:1)] | 78.1 |
| CC(CCCCCCN=CN1CCC(C(c2ccccc2)c2ccccc2)CC1)=NO [Example 4, 4-(Diphenylmethyl)-1-{{[7-(hydroxyimino)octyl]imino}methyl}piperidine 2-Naphthalenesulfonate (1:1) Hydrate (5:1)] | 12.3 |
| CC(=O)CCCCCCCCN=CN1CCC(C(c2ccccc2)c2ccccc2)CC1 [Example 5] | 4.76 |
| CC(=O)CN=CN1CCC(C(c2ccccc2)c2ccccc2)CC1 [Example 6, 4-Diphenylmethyl-1-[(2-oxopropyl)imino]methyl piperidine Hydrochloride (1:1) Hydrate (10:1)] | 6.07 |
